Where a name gives a salt, the structure may show the parent alone.
Target: T1, Full-length glucokinase (beta cell isoform) (Homo sapiens, UniProt P35557)
T1 construct: Full-length glucokinase (beta cell isoform) was His-tagged at N-terminus; His tag (N); made in house
T1 sequence (P35557 1-465): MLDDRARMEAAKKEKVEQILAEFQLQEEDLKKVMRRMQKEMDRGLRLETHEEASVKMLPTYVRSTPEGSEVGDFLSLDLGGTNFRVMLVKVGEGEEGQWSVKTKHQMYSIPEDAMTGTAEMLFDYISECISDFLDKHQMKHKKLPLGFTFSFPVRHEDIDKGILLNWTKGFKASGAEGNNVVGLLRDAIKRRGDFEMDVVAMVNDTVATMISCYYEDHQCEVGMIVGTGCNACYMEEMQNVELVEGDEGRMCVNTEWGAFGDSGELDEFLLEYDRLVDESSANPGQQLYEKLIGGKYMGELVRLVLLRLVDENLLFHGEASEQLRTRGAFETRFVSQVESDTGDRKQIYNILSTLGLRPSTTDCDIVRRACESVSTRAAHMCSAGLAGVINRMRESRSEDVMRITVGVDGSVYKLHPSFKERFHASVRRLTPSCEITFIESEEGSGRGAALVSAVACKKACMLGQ
Test: Glucokinase activation assay (PK/LDH-coupled, NADH depletion at 340 nm)
Assay type: biochemical
Conditions: 5 mM glucose, 2.5 mM ATP, pH 7.1, room temperature, values given as a range where N>1; for Emax: fitted % max activation, read-out: Maximum Activation
Procedure: Full-length glucokinase (beta cell isoform) was His-tagged at N-terminus and purified by a Ni column followed by size exclusion chromatography. A 320 mL column was packed in house using Pharmacia Superdex75 preparation grade resin. Glucose was obtained from Calbiochem (San Diego, Calif.) and other reagents were purchased from Sigma (St. Louis, Mo.).
All assays were performed in a Corning 384-well plate using Spectramax PLUS spectrophotometer (Molecular Devices, Sunnyvale, Calif.) at room temperature. The final assay volume was 40 μL. The buffer conditions used in this assay were as follows: 50 mM HEPES, 5 mM glucose, 2.5 mM ATP, 3.5 mM MgCl2, 0.7 mM NADH, 2 mM dithiothreitol, 1 Unit/mL PK/LDH, 0.2 mM phosphoenolpyruvate, and 25 mM KCl. The buffer pH was 7.1. The test compound in DMSO solution was added to the buffer and mixed by a plate shaker for 7.5 minutes. The final concentration of DMSO introduced into the assay was 0.25%.
Glucokinase was added to the buffer mixture to initiate the reaction in the presence and absence of compound. The reaction was monitored by absorbance at 340 nm due to the depletion of NADH. The initial reaction velocity was measured by the slope of a linear time course of 0-300 seconds. The percentage of activation was calculated by the following equation:
% Activation=(Va/Vo−1)×100;
wherein each of Va and Vo is defined as the initial reaction velocity in the presence and absence of the tested compound, respectively.
To determine the EC50 (half maximal effective concentration) and % maximum activation, compounds were serially diluted in DMSO by 3-fold. The GK activities were measured as a function of compound concentrations. The data were fitted to the equation below to obtain the EC50 and % max activation values:
Va/Vo=1+(% max activation/100)/(1+EC50/compound concentration)

SMILES | Emax [%] | EC50 [nM]
Cc1cnc(NC(=O)[C@H](CC2CCCC2)n2ccc(C(F)(F)F)cc2=O)cn1 [Example 1, (S)-3-cyclopentyl-N-(5-methylpyrazin-2-yl)-2-(2-oxo-4-(trifluoromethyl)pyridin-1(2H)-yl)propanamide] | 76 to 100 | 5000 to 10500
Cc1ccc(NC(=O)[C@H](CC2CCCC2)n2cccc(C(F)(F)F)c2=O)nc1 [Example 2, (S)-3-cyclopentyl-N-(5-methylpyridin-2-yl)-2-(2-oxo-3-(trifluoromethyl)pyridin-1(2H)-yl)propanamide] | 0 | > 100000
Cc1ccc(NC(=O)[C@H](CC2CCCC2)n2ccc(C(F)(F)F)cc2=O)nc1 [Example 3, (S)-3-cyclopentyl-N-(5-methylpyridin-2-yl)-2-(2-oxo-4-(trifluoromethyl)pyridin-1(2H)-yl)propanamide] | 55 to 79 | 1000 to 2500
Cn1ccc(NC(=O)[C@H](CC2CCCC2)n2ccc(C(F)(F)F)cc2=O)n1 [Example 4, (S)-3-cyclopentyl-N-(1-methyl-1H-pyrazol-3-yl)-2-(2-oxo-4-(trifluoromethyl)pyridin-1(2H)-yl)propanamide] | 72 to 106 | 4600 to 22400
Cc1cnc(NC(=O)[C@H](CC2CCCC2)n2cccc(C(F)(F)F)c2=O)cn1 [Example 5, (S)-3-cyclopentyl-N-(5-methylpyrazin-2-yl)-2-(2-oxo-3-(trifluoromethyl)pyridin-1(2H)-yl)propanamide] | 0 | > 100000
Cc1ccc(NC(=O)[C@H](CC2CCCC2)n2cc(C(F)(F)F)ccc2=O)nc1 [Example 6, (S)-3-cyclopentyl-N-(5-methylpyridin-2-yl)-2-(2-oxo-5-(trifluoromethyl)pyridin-1(2H)-yl)propanamide] | 88 to 105 | 200 to 800
Cc1cnc(NC(=O)[C@H](CC2CCCC2)n2cc(C(F)(F)F)ccc2=O)cn1 [Example 7, (S)-3-cyclopentyl-N-(5-methylpyrazin-2-yl)-2-(2-oxo-5-(trifluoromethyl)pyridin-1(2H)-yl)propanamide] | 118 to 152 | 1600 to 3700
O=C(Nc1cnccn1)[C@H](CC1CCCC1)n1cc(C(F)(F)F)ccc1=O [Example 8, (S)-3-cyclopentyl-2-(2-oxo-5-(trifluoromethyl)pyridin-1(2H)-yl)-N-(pyrazin-2-yl)propanamide] | 110 to 128 | 1700 to 3200
O=C(Nc1ccncn1)[C@H](CC1CCCC1)n1cc(C(F)(F)F)ccc1=O [Example 9, (S)-3-cyclopentyl-2-(2-oxo-5-(trifluoromethyl)pyridin-1(2H)-yl)-N-(pyrimidin-4-yl)propanamide] | 95 to 106 | 1100 to 1400
CCn1ccc(NC(=O)[C@H](CC2CCCC2)n2cc(C(F)(F)F)ccc2=O)n1 [Example 10, (S)-3-cyclopentyl-N-(1-ethyl-1H-pyrazol-3-yl)-2-(2-oxo-5-(trifluoromethyl)pyridin-1(2H)-yl)propanamide] | 121 to 148 | 1500 to 2100
O=C(Nc1ccn(Cc2ccccc2)n1)[C@H](CC1CCCC1)n1cc(C(F)(F)F)ccc1=O [Example 11, (S)—N-(1-benzyl-1H-pyrazol-3-yl)-3-cyclopentyl-2-(2-oxo-5-(trifluoromethyl)pyridin-1(2H)-yl)propanamide] | 108 to 141 | 700 to 1300
O=C(Nc1ncccn1)[C@H](CC1CCCC1)n1cc(C(F)(F)F)ccc1=O [Example 12, (S)-3-cyclopentyl-2-(2-oxo-5-(trifluoromethyl)pyridin-1(2H)-yl)-N-(pyrimidin-2-yl)propanamide] | 109 to 110 | 13600 to 20800
O=C(Nc1cnccn1)[C@H](CC1CCCC1)n1ccc(C(F)(F)F)cc1=O [Example 13, (S)-3-cyclopentyl-2-(2-oxo-4-(trifluoromethyl)pyridin-1(2H)-yl)-N-(pyrazin-2-yl)propanamide] | 106 | 14000
O=C(Nc1ccncn1)[C@H](CC1CCCC1)n1ccc(C(F)(F)F)cc1=O [Example 14, (S)-3-cyclopentyl-2-(2-oxo-4-(trifluoromethyl)pyridin-1(2H)-yl)-N-(pyrimidin-4-yl)propanamide] | 58 | 5800
CCn1ccc(NC(=O)[C@H](CC2CCCC2)n2ccc(C(F)(F)F)cc2=O)n1 [Example 15, (S)-3-cyclopentyl-N-(1-ethyl-1H-pyrazol-3-yl)-2-(2-oxo-4-(trifluoromethyl)pyridin-1(2H)-yl)propanamide] | 92 | 9400
Cn1ccc(NC(=O)[C@H](CC2CCCC2)n2cc(C(F)(F)F)ccc2=O)n1 [Example 16, (S)-3-cyclopentyl-N-(1-methyl-1H-pyrazol-3-yl)-2-(2-oxo-5-(trifluoromethyl)pyridin-1(2H)-yl)propanamide] | 125 | 2500
O=C(Nc1ccc(C(F)(F)F)cn1)[C@H](CC1CCCC1)n1cc(C(F)(F)F)ccc1=O [Example 17, (S)-3-cyclopentyl-2-(2-oxo-5-(trifluoromethyl)pyridin-1(2H)-yl)-N-(5-(trifluoromethyl)pyridin-2-yl)propanamide] | 57 | 400
O=C(Nc1ccon1)[C@H](CC1CCCC1)n1cc(C(F)(F)F)ccc1=O [Example 18, (S)-3-cyclopentyl-N-(isoxazol-3-yl)-2-(2-oxo-5-(trifluoromethyl)pyridin-1(2H)-yl)propanamide] | 103 | 9300
O=C(Nc1ccc2ccccc2n1)[C@H](CC1CCCC1)n1cc(C(F)(F)F)ccc1=O [Example 19, (S)-3-cyclopentyl-2-(2-oxo-5-(trifluoromethyl)pyridin-1(2H)-yl)-N-(quinolin-2-yl)propanamide] | 89 | 500
COc1cnc(NC(=O)[C@H](CC2CCCC2)n2cc(C(F)(F)F)ccc2=O)cn1 [Example 20, (S)-3-cyclopentyl-N-(5-methoxypyrazin-2-yl)-2-(2-oxo-5-(trifluoromethyl)pyridin-1(2H)-yl)propanamide] | 114 | 1200
O=C(Nc1ccccn1)[C@H](CC1CCCC1)n1cc(C(F)(F)F)ccc1=O [Example 21, (S)-3-cyclopentyl-2-(2-oxo-5-(trifluoromethyl)pyridin-1(2H)-yl)-N-(pyridin-2-yl)propanamide] | 113 | 300
Cc1cnc(NC(=O)[C@H](CC2CCCC2)n2cnc(C(F)(F)F)cc2=O)cn1 [Example 22, (S)-3-cyclopentyl-N-(5-methylpyrazin-2-yl)-2-(6-oxo-4-(trifluoromethyl)pyrimidin-1(6H)-yl)propanamide] | 130 | 20200
Cc1ccc(NC(=O)[C@H](CC2CCCC2)n2cnc(C(F)(F)F)cc2=O)nc1 [Example 23, (S)-3-cyclopentyl-N-(5-methylpyridin-2-yl)-2-(6-oxo-4-(trifluoromethyl)pyrimidin-1(6H)-yl)propanamide] | 77 | 2600
Cn1ccc(NC(=O)[C@H](CC2CCCC2)n2cnc(C(F)(F)F)cc2=O)n1 [Example 24, (S)-3-cyclopentyl-N-(1-methyl-1H-pyrazol-3-yl)-2-(6-oxo-4-(trifluoromethyl)pyrimidin-1(6H)-yl)propanamide] | 106 | 27100
CCOC(=O)Cc1cnc(NC(=O)[C@H](CC2CCCC2)n2cc(C(F)(F)F)ccc2=O)s1 [Example 25, (S)-ethyl 2-(2-(3-cyclopentyl-2-(2-oxo-5-(trifluoromethyl)pyridin-1(2H)-yl)propanamido)thiazol-5-yl)acetate] | 84 | 2900
O=C(O)Cc1cnc(NC(=O)[C@H](CC2CCCC2)n2cc(C(F)(F)F)ccc2=O)s1 [Example 26, (S)-2-(2-(3-cyclopentyl-2-(2-oxo-5-(trifluoromethyl)pyridin-1(2H)-yl)propanamido)thiazol-5-yl)acetic acid mono acetic acid salt] | 116 | 11100
COC(=O)c1ccc(NC(=O)[C@H](CC2CCCC2)n2cc(C(F)(F)F)ccc2=O)nc1 [Example 27, (S)-methyl 6-(3-cyclopentyl-2-(2-oxo-5-(trifluoromethyl)pyridin-1(2H)-yl)propanamido)nicotinate] | 84 | 200
